Reference: ChEMBL document CHEMBL1817580, “Chemical modifications of resveratrol for improved protein kinase C alpha activity” (Bioorg Med Chem, 2011)
The source made the active and inactive calls. The calls are words filed in the database; no cut-off is given here.

What was measured:
[1] = target: Protein kinase C alpha type (Homo sapiens) (UniProt P17252); assay: Inhibition of membrane translocation of PKCalpha expressed in HEK293 cells assessed as increase of protein found in membrane fraction at 100 uM after 2 hrs by Western blotting relative to resveratrol; type: cell-based; parameters: scale not given: the % may be the effect or the level left
[2] = target: Protein kinase C alpha type (Homo sapiens) (UniProt P17252); assay: Inhibition of TPA-induced membrane translocation of PKCalpha expressed in HEK293 cells assessed as protein found in membrane fraction at 100 uM after 2 hrs by Western blotting relative to TPA; type: cell-based; parameters: scale not given: the % may be the effect or the level left
HEK293 [3] = assay: Cytotoxicity against HEK293 cells assessed as increase in cell viability at 100 uM after 48 hrs by MTT assay relative to resveratrol; type: cell-based; conditions: human, hek293, 48 h
[4] = target: Protein kinase C alpha type (Homo sapiens) (UniProt P17252); assay: Binding affinity to recombinant C1B domain of PKCalpha expressed in Escherichia coli BL21 (DE3) after 45 mins by fluorescence quenching assay
[5] = target: Protein kinase C alpha type (Homo sapiens) (UniProt P17252); assay: Inhibition of membrane translocation of PKCalpha expressed in HEK293 cells at 100 uM after 2 hrs by Western blotting; type: cell-based
HEK293 [6] = assay: Cytotoxicity against HEK293 cells assessed as decrease in cell viability at 100 uM after 48 hrs by MTT assay relative to control; type: cell-based; conditions: human, hek293, 48 h

Compound	Activity [1]	Activity [2]	fold change (FC) (HEK293 [3])	Activity [4]	inhibition [5]	Activity (HEK293 [6])	Activity (HEK293 [3])
CCCCCCCCOc1cc(/C=C/c2ccc(O)cc2)cc(OCCCCCCCC)c1	20%	65.7%	4				
COc1ccc(/C=C/c2cc(OC)cc(OC)c2)cc1 [TRISMETHOXYRESVERATROL]	20%	31.9%	4	Active			
COc1cc(/C=C/c2cc(OC)c(OC)c(OC)c2)cc(OC)c1OC	20%	44.8%	2				
Oc1ccc(/C=C/c2cc(O)cc(O)c2)cc1 [RESVERATROL]		60%		Active	5%	20%	
Oc1cc(/C=C/c2cc(O)c(O)c(O)c2)cc(O)c1O	20%	29.8%		Active			25%
CCCCCCCCCCCCCCCCOc1ccc(/C=C/c2cc(O)cc(O)c2)cc1	20%	79.8%	2	Active			
CCCCCCCCCCCCCCCCOc1c(O)cc(/C=C/c2cc(O)c(O)c(O)c2)cc1O	20%	68.3%					25%
CCCCCCCCOc1ccc(/C=C/c2cc(O)cc(O)c2)cc1	20%	85.2%	4				
CCCCCCCCCCCCCCCCOc1cc(/C=C/c2ccc(O)cc2)cc(OCCCCCCCCCCCCCCCC)c1	20%	78.8%	2				
